“And” between values parts separate entries of the source, which are not always exact repeats. Identical values can stand only once.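 Exposure lasted 48 hours, with cells grown in 96-well plates and compounds tested at five concentrations. GI50 = concentration required for 50% inhibition of growth. TGI is the concentration that stops growth completely.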
Experiments:
Experiment in all cases: NCI-60 cell line screen, 48 h
SF-268 CNS = test system: SF-268 CNS
OVCAR-4 ovarian = test system: OVCAR-4 ovarian
M14 melanoma = test system: M14 melanoma
OVCAR-5 ovarian = test system: OVCAR-5 ovarian
SNB-75 CNS = test system: SNB-75 CNS
SNB-19 CNS = test system: SNB-19 CNS
HCC-2998 colon = test system: HCC-2998 colon
NCI-H23 lung = test system: NCI-H23 lung

Structure (SMILES)	GI50 (SF-268 CNS)	TGI (SF-268 CNS) [µM]	GI50 (OVCAR-4 ovarian)	TGI (OVCAR-4 ovarian) [µM]	GI50 (M14 melanoma)	TGI (M14 melanoma)	GI50 (OVCAR-5 ovarian)	TGI (OVCAR-5 ovarian) [µM]	GI50 (SNB-75 CNS) [µM]	TGI (SNB-75 CNS)	GI50 (SNB-19 CNS)	TGI (SNB-19 CNS) [µM]	GI50 (HCC-2998 colon)	TGI (HCC-2998 colon) [µM]	GI50 (NCI-H23 lung)	TGI (NCI-H23 lung) [µM]
Clc1ccc(N=CNc2ccc(-c3nc4ccccc4[nH]3)cc2)cc1	19.6 µM	> 100	48.4 µM	> 100	> 100 µM	> 100 µM	> 100 µM	> 100	36.1	> 100 µM	> 100 µM	> 100	–	–	–	–
COC(=O)C(NC(=O)c1ccccc1)c1ccc(OC)c(I)c1 (stereo not drawn)	> 100 µM	> 100	94.2 µM	> 100	52.3 µM	> 100 µM	> 100 µM	> 100	56.7	> 100 µM	> 100 µM	> 100	54.5 µM	> 100	–	–
COc1cc2nccc(Oc3ccc(NC(=O)C4(C(=O)Nc5ccc(F)cc5)CC4)cc3)c2cc1OC	> 10 µM and 4.54 µM	> 100	> 10 µM and 3.79 µM	> 62.6	> 10 µM and 2.9 µM	> 10 µM and 18.3 µM	> 10 µM and 3.5 µM	> 58.3	0.27	8.14 µM	> 10 µM and 7.69 µM	> 100	> 10 µM and 6.29 µM	> 100	> 10 µM and 2.83 µM	> 100
Cn1c(=O)c(Oc2ccc(F)cc2F)cc2cnc(NC3CCC(O)CC3)nc21 (stereo not drawn)	> 25 µM	> 25	> 25 µM	> 25	> 25 µM	> 25 µM	> 25 µM	> 25	> 25	> 25 µM	> 25 µM	> 25	> 25 µM	> 25	> 25 µM	> 25
COc1ccc(S(=O)(=O)NCCCNc2nccc(-c3c(-c4ccc(F)cc4)nc4sccn34)n2)cc1	7.85 µM	> 100	3.07 µM	27.2	8.98 µM	> 100 µM	32.7 µM	> 100	1.56	7.41 µM	40.2 µM	> 100	11.8 µM	56.7	15.3 µM	> 100
O=C(/C=C/N1CCN(c2cccc(Cl)c2)CC1)c1ccc(Cl)cc1	19.8 µM	53.2	> 100 µM	> 100	19.6 µM	42.3 µM	49.7 µM	> 100	–	–	64.9 µM	> 100	24.9 µM	50.5	39 µM	> 100
O=C(Nc1cccc(C(F)(F)F)c1)Nc1cc(S(=O)(=O)NC2CC2)ccc1-c1ccsc1	5.95 µM	21.3	3.78 µM	15.4	4.32 µM	18.4 µM	5.96 µM	20.2	3.45	16.4 µM	2.99 µM	13	6.15 µM	19.8	4.03 µM	16.6
Brc1ccc2c(c1)-c1ccccc1C1=NCCN12	1.77 µM	9.44	1.43 µM	8.53	1.48 µM	3.16 µM	1.64 µM	10.4	1.53	4.15 µM	2.17 µM	11.6	1.3 µM	8.49	1.8 µM	11.3
COc1ccc(-c2ccc(/C=N/n3c(COc4ccc(Cl)c(C)c4)nn(CN4CCOCC4)c3=S)o2)c([N+](=O)[O-])c1	33.8 µM	> 100	31.9 µM	76.7	25.7 µM	66.6 µM	33.2 µM	> 100	–	–	41.2 µM	> 100	16.5 µM	32.5	20.2 µM	51.6
C=CCCC1(CCP(=O)(c2ccccc2)c2ccccc2)OCCO1	–	> 100	–	–	–	> 100 µM	–	> 100	–	> 100 µM	–	> 100	–	> 100	–	> 100
O=C1C(=O)c2c(ccc3ccccc23)-c2ccccc21	1.77 µM	5.73	1.21 µM	2.5	–	–	2.54 µM	7.45	1.83	4.03 µM	2.43 µM	7.97	2.65 µM	7.75	1.76 µM	4.63
COc1ccc(Cl)cc1Nc1nc(C(F)(F)F)ccc1C(=O)N/N=C/c1ccc(Cl)cc1	1.96 µM	27.9	0.74 µM	> 100	3.69 µM	> 100 µM	6.48 µM	> 100	–	–	6.42 µM	> 100	2.67 µM	> 100	9.57 µM	42
Cc1cc(C2(c3cc(C)c(O)c4ncccc34)OC(=O)c3ccccc32)c2cccnc2c1O	–	–	–	> 100	0.0162 µM	–	–	> 100	–	6.82 µM and 8.1 µM	0.0365 µM	–	–	> 100	0.0145 µM	–
COc1cc(COC(=O)NC(Cc2cccs2)C(=O)O)c([N+](=O)[O-])cc1OC (stereo not drawn)	–	> 100	–	–	–	> 100 µM	–	> 100	–	> 100 µM	–	> 100	–	> 100	–	> 100
